Source: patent publication US7923004B2 (priority 2006, dated 2011)

Assays:
Type in all cases: cell-based
[1] = test system: HCV genotype 1b replicon (Huh-Luc-Neo cells); test: HCV Replicon Luciferase Assay; conditions: Hepatitis C virus, 72 h, read-out: HCV-1b Replicon Inhibition*, Luciferase (EC50)
[2] = test system: HCV genotype 1b replicon (Huh-Luc-Neo cells); test: HCV Replicon RNA (Taqman) Assay, genotype 1b; conditions: Hepatitis C virus, 72 h, read-out: HCV-1b Replicon Inhibition*, Taqman (EC50)
[3] = Cell Titer-Glo Cell Viability Assay, genotype 1b cells; conditions: human, Huh-Luc-Neo (HCV genotype 1b replicon) cells, HCV genotype 1b assays, read-out: Cytotoxicity* (CC50)
Procedure: Cell Seeding and Compound Treatment: Huh-Luc-Neo (Genotype 1b) or En5-3/Htat2ANeo (Genotype 1a) cells are seeded at 5000-7000/well in an opaque-walled 96 plate with Growth Medium (DMEM phenol red free+PS+2 mM glutamine; 100 ul/well). The compounds to be tested for inhibition of cell viability are added to the experimental wells so as to generate a dose response curve (8-9 concentrations, 10 μl/well at 10× assay concentration) and the cells are then incubated (5% CO2, 37° C.) for 72 h.
Reagent Preparation and Assay: After completion of the incubation period the cell viability measurements are made using the Cell Titre Glo Assay (Promega) according to the manufacturer's recommended protocol. Briefly, the CellTiter-Glo Buffer is thawed and equilibrated to room temperature prior to use. The lyophilized CellTiter-Glo Substrate is also equilibrated to room temperature prior to use. 10 ml of CellTiter-Glo Buffer is then transferred to 1 vial of CellTiter-Glo Substrate and mixed gently with a Vortex. 100 μl of CellTiter-Glo Assay reagent (CellTiter-Glo Buffer+CellTiter-Glo Substrate Mixture) is added to each well. The well contents are mixed for 5 min. on an orbital shaker at room temperature to induce cell lysis and the luminescence is then measured using a luminometer.

[4] = GETYPE1B, Huh-Luc-Neo cells, genotype 1b
[5] = GETYPE1B, Huh-Luc-Neo cells, genotype 1b, HCV RNA
[6] = Huh-Luc-Neo cells, genotype 1b, HCV RNA

Compound | EC50 [1, 4] [µM] | EC50 [2, 5] [µM] | CC50 at 72 h [3] [µM] | EC50 ([1]; Huh-Luc-Neo cells, genotype 1b) [µM] | EC50 [2, 6] [µM] | EC50 [1] [µM] | EC50 [2] [µM]
Cc1ccc(O)c(-c2nn(C)cc2C#Cc2ccc(NC(=O)[C@@H]3CNCCN3C(=O)[C@H](NC(=O)OC(C)(C)C)c3ccccc3)cc2)c1 [Compound 27A] | < 1 | < 1 | 10 to 100 |  |  |  | 
Cc1ccc(OS(=O)(=O)C(F)(F)F)c(-c2nn(C)cc2C#Cc2ccc(NC(=O)C3CCCCN3C(=O)[C@H](Cc3ccccc3)NC(=O)OC(C)(C)C)cc2)c1 (stereo partly drawn) [Compound 11] |  |  | > 100 | < 1 | < 1 |  | 
Cc1ccc(O)c(-c2nn(C)cc2C#Cc2ccc(NC(=O)C3CCCCN3C(=O)[C@]3(NC(=O)OC(C)(C)C)C[C@@H]3c3ccccc3)cc2)c1 (stereo partly drawn) [Example 21] |  |  | 10 to 100 | < 1 | < 1 |  | 
Cc1ccc(O)c(-c2nn(C)cc2C#Cc2ccc(NC(=O)C3CCCCN3C(=O)[C@H](Cc3ccccc3)N(C)C(=O)OC(C)(C)C)cc2)c1 (stereo partly drawn) [Example 19] |  |  | 10 to 100 | < 1 | < 1 |  | 
Cc1ccc(O)c(-c2nn(C)cc2C#Cc2ccc(NC(=O)C3CCCCN3S(=O)(=O)c3cccs3)cc2)c1 (stereo not drawn) [Compound 12] |  |  | > 100 | < 1 | < 1 |  | 
Cc1ccc(O)c(-c2nn(C)cc2C#Cc2ccc(NC(=O)C3CCCCN3C(=O)[C@H](Cc3cccnc3)NC(=O)OC(C)(C)C)cc2)c1 (stereo partly drawn) [Compound 3] |  |  | > 100 | < 1 | < 1 |  | 
Cc1ccc(OCC(N)=O)c(-c2nn(C)cc2C#Cc2ccc(NC(=O)C3CCCCN3C(=O)[C@H](Cc3ccccc3)NC(=O)OC(C)(C)C)cc2)c1 (stereo partly drawn) [Compound 58] |  |  | 10 to 100 |  |  | 1 to 10 | > 100
Cc1ccc(O)c(-c2nn(C)cc2C#Cc2ccc(NC(=O)[C@@H]3CN(C(=O)C(F)(F)F)CCN3C(=O)[C@H](NC(=O)OC(C)(C)C)c3ccccc3)cc2)c1 [Compound 41] |  |  | > 100 | < 1 | < 1 |  | 
COc1ccccc1[C@@H](NC(=O)OC(C)(C)C)C(=O)N1CCOC[C@H]1C(=O)Nc1ccc(C#Cc2cn(C)nc2-c2cc(C#N)ccc2O)cc1 [Compound 22A] | < 1 | < 1 | > 100 |  |  |  | 
CC(=O)Oc1ccc(C)cc1-c1nn(C)cc1C#Cc1ccc(NC(=O)C2CCCCN2S(=O)(=O)c2cccs2)cc1 (stereo not drawn) [Compound 63] |  |  | > 100 | 1 to 10 | 1 to 10 |  | 
CCOC(=O)c1ccc(O)c(-c2nn(C)cc2C#Cc2ccc(NC(=O)[C@@H]3CCCCN3C(=O)[C@H](NC(=O)OC(C)(C)C)c3ccsc3)cc2)c1 [Compound 33] |  |  | > 100 | < 1 | < 1 |  | 
Cc1ccc(O)c(-c2nn(C)cc2C#Cc2ccc(NC(=O)C3CCCCN3C(=O)[C@H](CCc3ccccc3)NC(=O)OC(C)(C)C)cc2)c1 (stereo partly drawn) [Compound 7A] | < 1 | < 1 | 10 to 100 |  |  |  | 
Cc1ccc(O)c(-c2nn(C)cc2C#Cc2ccc(NC(=O)[C@H]3CS(=O)(=O)CCN3C(=O)[C@H](NC(=O)OC(C)(C)C)c3ccccc3)cc2)c1 [Compound 46 (Table 1)] |  |  | > 100 | < 1 | < 1 |  | 
CCOC(=O)c1ccc(O)c(-c2nn(C)cc2C#Cc2ccc(NC(=O)[C@@H]3CCCCN3C(=O)[C@H](NC(=O)OC(C)(C)C)c3ccccc3)cc2)c1 [Compound 30] |  |  | > 100 | < 1 | < 1 |  | 
Cc1ccc(O)c(-c2nn(C)cc2C#Cc2ccc(NC(=O)C3CCCCN3C(=O)[C@H](Cc3ccccc3)NC(=O)OC(C)(C)C)cc2)c1 (stereo partly drawn) [Compound 14] |  |  | > 100 | < 1 | < 1 |  | 
Cc1ccc(O)c(-c2nn(C)cc2C#Cc2ccc(NC(=O)C3CCCCN3C(=O)[C@H](Cc3ccc(F)cc3)NC(=O)OC(C)(C)C)cc2)c1 (stereo partly drawn) [Compound 5] |  |  | > 100 | < 1 | < 1 |  | 
CC(C)(C)OC(=O)N[C@@H](C(=O)N1CCOCC1C(=O)Nc1ccc(C#Cc2cn(CCO)nc2-c2cc(Cl)ccc2O)cc1)c1ccccc1 (stereo partly drawn) [Compound 30A] | < 1 | < 1 | > 100 |  |  |  | 
CC(C)(C)OC(=O)N[C@@H](C(=O)N1CCCC[C@H]1C(=O)Nc1ccc(C#Cc2cn(CCO)nc2-c2cc(Cl)ccc2O)cc1)c1ccccc1 [Compound 39] |  |  | 10 to 100 | < 1 | < 1 |  | 

Compound | EC50 [1, 4] [µM] | EC50 [2, 5] [µM] | CC50 at 72 h [3] [µM] | EC50 ([1]; Huh-Luc-Neo cells, genotype 1b) [µM] | EC50 [2, 6] [µM] | EC50 [1] [µM] | EC50 [2] [µM]
Cc1ccc(O)c(-c2nn(C)cc2C#Cc2ccc(NC(=O)C3CCCCN3C(=O)C(c3ccccc3)N(C)C(=O)OC(C)(C)C)cc2)c1 (stereo not drawn) [Compound 56] |  |  | 10 to 100 | 1 to 10 | 1 to 10 |  | 
Cn1cc(C#Cc2ccc(NC(=O)[C@@H]3COCCN3C(=O)[C@H](NC(=O)OC(C)(C)C)c3ccsc3)cc2)c(-c2cc(C#N)ccc2O)n1 [Compound 34] |  |  | > 100 | < 1 | < 1 |  | 
Cc1ccc(O)c(-c2nn(C)cc2C#Cc2ccc(NC(=O)C3CCCCN3C(=O)C(NC(=O)OC(C)(C)C)c3ccccc3)cc2)c1 (stereo not drawn) [Compound 1] |  |  | > 100 | 1 to 10 | < 1 |  | 
Cc1ccc(O)c(-c2nn(C)cc2C#Cc2ccc(NC(=O)C3CCCCN3C(=O)[C@H](Cc3ccc(Cl)cc3Cl)NC(=O)OC(C)(C)C)cc2)c1 (stereo partly drawn) [Compound 6] |  |  | > 100 | < 1 | < 1 |  | 
Cc1ccc(O)c(-c2nn(C)cc2C#Cc2ccc(NC(=O)C3CCCCN3C(=O)[C@H](Cc3cccc(F)c3)NC(=O)OC(C)(C)C)cc2)c1 (stereo partly drawn) [Compound 27] |  |  | 10 to 100 | < 1 | < 1 |  | 
Cc1ccc(O)c(-c2nn(C)cc2C#Cc2ccc(NC(=O)C3CCCCN3C(=O)[C@H](Cc3ccccc3)NC(=O)CC(C)(C)C)cc2)c1 (stereo partly drawn) [Compound 8] |  |  | 10 to 100 | < 1 | < 1 |  | 
Cc1ccc(O)c(-c2nn(C)cc2C#Cc2ccc(NC(=O)C3CCCCN3C(=O)[C@H](Cc3ccccc3)NC(=O)CC3CCCCC3)cc2)c1 (stereo partly drawn) [Compound 9] |  |  | 10 to 100 | < 1 | < 1 |  | 
Cc1ccc(O)c(-c2nn(C)cc2C#Cc2ccc(NC(=O)C3CCCCN3C(=O)[C@H](Cc3ccccc3)NC(=O)CC3CCCC3)cc2)c1 (stereo partly drawn) [Compound 7] |  |  | > 100 | < 1 | < 1 |  | 
Cn1cc(C#Cc2ccc(NC(=O)[C@@H]3COCCN3C(=O)[C@H](NS(=O)(=O)C3CC3)c3ccccc3)cc2)c(-c2cc(Cl)ccc2O)n1 [Compound 55] |  |  | 10 to 100 | < 1 | < 1 |  | 
Cc1ccc(O)c(-c2nn(C)cc2C#Cc2ccc(NC(=O)[C@@H]3CS(=O)(=O)CCN3C(=O)[C@H](NC(=O)OC(C)(C)C)c3ccccc3)cc2)c1 [Compound 45] |  |  | > 100 | < 1 | < 1 |  | 
Cn1cc(C#Cc2ccc(NC(=O)[C@@H]3COCCN3C(=O)[C@H](NC(=O)OC(C)(C)C)c3ccccc3)cc2)c(-c2cc(Cl)ccc2O)n1 [Example 51] |  |  | 10 to 100 | < 1 | < 1 |  | 
Cn1cc(C#Cc2ccc(NC(=O)[C@@H]3COCCN3C(=O)[C@H](NC(=O)OC(C)(C)C)c3ccccc3)cc2)c(-c2cc(C#N)ccc2O)n1 [Compound 37] |  |  | > 100 | < 1 | < 1 |  | 
CC(C)(C)OC(=O)N[C@@H](C(=O)N1CCCC[C@H]1C(=O)Nc1ccc(C#Cc2c[nH]nc2-c2cc(Cl)ccc2O)cc1)c1ccccc1 [Compound 38] |  |  | > 100 | < 1 | < 1 |  | 
Cc1ccc(O)c(-c2nn(C)cc2C#Cc2ccc(NC(=O)C3CCCCN3C(=O)[C@H](Cc3ccccc3)NC(=O)NC(C)(C)C)cc2)c1 (stereo partly drawn) [Example 18] |  |  | > 100 | < 1 | < 1 |  | 
Cn1cc(C#Cc2ccc(NC(=O)[C@@H]3CCCCN3C(=O)[C@@H](NC(=O)OC(C)(C)C)c3ccsc3)cc2)c(-c2cc(Br)ccc2O)n1 [Example 49] |  |  | 10 to 100 | < 1 | < 1 |  | 
Cn1cc(C#Cc2ccc(NC(=O)[C@@H]3COCCN3C(=O)[C@H](NC(=O)OC(C)(C)C)c3ccccc3)cc2)c(-c2cc(F)ccc2O)n1 [Example 47] |  |  | > 100 | < 1 | < 1 |  | 
Cn1cc(C#Cc2ccc(NC(=O)[C@@H]3CCCCN3C(=O)[C@H](NC(=O)OC(C)(C)C)c3ccccc3)cc2)c(-c2cc(Br)ccc2O)n1 [Compound 22] |  |  | 10 to 100 | < 1 | < 1 |  | 
Cc1ccc(O)c(-c2nn(C)cc2C#Cc2ccc(NC(=O)C3CCCCN3C(=O)[C@H](Cc3ccco3)NC(=O)OC(C)(C)C)cc2)c1 (stereo partly drawn) [Compound 12A] | < 1 | < 1 | 10 to 100 |  |  |  | 
